Test results from US5399565A, “Pyrazolidinone CCK and gastrin antagonists and pharmaceutical formulations therof” (priority 1993, dated 1995).

Assays:
[1] = Auditory startle response, nicotine withdrawal; type: in vivo, Male Long Evans rats
Source text: (§1) In humans, withdrawal from the chronic administration of benzodiazepines or nicotine can result in a variety of undesirable side-effects, including anxiety. […] Withdrawal from chronic nicotine administration also has anxiogenic effects as indicated by decreased time spent in the light compartment of a light/dark box (Costall et al., Ibid) and increased auditory startle responses. Applicants examined the effects of compounds of this invention on the auditory startle response of rats undergoing withdrawal from the chronic administration of diazepam or nicotine.
(§2) Male Long Evans rats (200-220 g; Harlan Sprague Dawley, Columbus, Ind.) were individually housed in a controlled environment on a 12 hour light-dark cycle and were given free access to food (Purina Rodent Chow) and water. All treatment groups contained 8-10 rats.
(§3) Rats were anesthetized with halothane and Alzet osmotic minipumps (Alza Corporation, Palo Alto, Calif., Model 2ML2) were implanted subcutaneously. Diazepam (Sigma Chemical; St. Louis, Mo.) was suspended in 40% polyethylene glycol, 10% ethanol and Tween 80. Nicotine ditartrate was dissolved in physiological saline. Pumps were filled with either diazepam (20 mg/kg/day), nicotine ditartrate (6 mg/kg base/day), or the appropriate vehicle. Twelve days following implantation of pumps, rats were anesthetized with halothane and the pumps were removed.
(§4) The sensory motor reactions [auditory startle response (peak amplitude, Vmax)]of individual rats was recorded using San Diego Instruments startle chambers (San Diego, Calif.). Startle sessions consisted of a 5-minute adaptation period at a background noise level of 70±2 dBA immediately followed by 25 presentations of auditory stimuli (120±3 dBA noise, 50 ms duration) presented at 8-second intervals. Peak startle amplitudes were then averaged for all 25 presentations of stimuli for each session. Auditory startle responding was evaluated daily at 24 hour intervals on days 1-4 following drug withdrawal.
(§5) The compound of Example 141 was administered 60 minutes before startle testing at doses of 0, 10, 30, 60, or 100 mg/kg.

Catalepsy bar test = type: in vivo, Male Sprague-Dawley rats
Method: Acute administration of classical antipsychotic drugs results in catalepsy. Production of catalepsy is thought to be predictive of Parkinson-like extrapyramidal side effects. Sanberg, et al., Neuroscience 102:748-759 (1988). […] Haloperidol, a classical anti-psychotic, was used as a reference.
Male Sprague-Dawley rats (290-350 g) were used in these studies. Catalepsy was evaluated using the bar test (Sanberg et al., Neurosci., 102,748-759, (1988); Ferre, et al., Pharm. Biochem. Beh., 35, 753-757 (1990). The bar apparatus consisted of a horizontal metal rod with a diameter of 1 cm, which was positioned 10 cm from the floor to the top of the bar. The animal was gently placed in front of the bar, and then its forepaws were lifted to rest on the bar. The length of time, in seconds, until both forepaws touched the floor (3 minutes maximum allowed) was recorded. A baseline measurement was taken prior to injection, and catalepsy was evaluated every 60 minutes for three hours after injection of the compounds (Table IV). In a separate set of experiments, the compounds of this invention were administered 60 minutes prior to the administration of haloperidol, and catalepsy was evaluated every 60 minutes for three hours after the haloperidol injection. Catalepsy scores of drug-treated animals were compared to haloperidol- or vehicle-treated animals at each time point using the analysis of variance (ANOVA) (Table V). Haloperidol (Research Biochemicals Inc.) was dissolved in distilled water and a small amount of 0.1N lactic acid. The compounds of this invention were prepared in 50% ethanol. The volume of all injections was 1 ml/kg.

brain CCK receptor = target: T1, brain CCK receptor (Mus musculus, UniProt P56481); assay: CCK receptor binding, mouse brain membranes (125I-CCK-8 sulfate)
T1 construct: from tissue; host or cells: forebrain membranes of male CF-1 mice
T1 sequence (P56481 1-453): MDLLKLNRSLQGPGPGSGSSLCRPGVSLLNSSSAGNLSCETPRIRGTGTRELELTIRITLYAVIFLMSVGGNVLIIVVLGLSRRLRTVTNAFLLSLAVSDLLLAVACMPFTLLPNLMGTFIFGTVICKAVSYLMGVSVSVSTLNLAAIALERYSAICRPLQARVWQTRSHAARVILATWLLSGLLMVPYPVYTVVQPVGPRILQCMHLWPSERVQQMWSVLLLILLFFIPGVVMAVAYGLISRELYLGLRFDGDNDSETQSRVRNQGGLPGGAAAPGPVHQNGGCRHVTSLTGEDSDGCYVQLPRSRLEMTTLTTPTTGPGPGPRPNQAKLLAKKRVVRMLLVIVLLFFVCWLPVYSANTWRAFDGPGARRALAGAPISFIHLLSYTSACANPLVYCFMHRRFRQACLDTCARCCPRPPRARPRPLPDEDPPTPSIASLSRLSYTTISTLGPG

[2] = Auditory startle response, benzodiazepine (diazepam) withdrawal; type: in vivo, Male Long Evans rats; details: for benzodiazepine withdrawal-induced increase in sensory responsiveness: 60 minutes before startle testing, days 1-4
Source text: as §1, §2, §3, §4, §5

[3] = CCK-induced colonic motility in anesthetized ferrets; type: in vivo, male ferrets
Method: (§6) Experiments were performed on fasted (18 hour) male ferrets weighing 0.8-1.5 kilograms (Triple F Supplier) and water was given ad lib. Anesthesia was induced with urethane (0.2 ml/100 grams body weight j.p., Sigma Chemical Company), a tracheal tube was inserted to provide a clear airway for spontaneous breathing and the body temperature was maintained at 38° using a homeothermic blanket (Harvard Apparatus). The left jugular vein was cannulated (PE-50, i.d. 0.58 mm, o.d. 0.97 mm) for the subsequent administration of drugs and the left carotid artery was cannulated (PE-90, i.d. 0.86 mm, o.d. 1.277 mm) for the continual measurement of blood pressure and heart rate. Following a laporatomy, a catheter (PE-50) was inserted into the gall bladder through the bile duct and connected via a pressure transducer to a chart recorder for the visual display. The colon was located and a strain gauge transducer was sutured in the circular muscle direction to monitor contractile state. Before each experiment the blood pressure, heart rate and all motility recording transducers were calibrated for subsequent recording of data.
Following a 30 minute stabilization period, cholecystokinin 8-sulfated (CCK8-S) was given at doses of 100, 300 and 700 ng/kg intravenously (iv), with a 10 minute stabilization period in between CCK8-S doses. […]

[4] = CCK-induced gall bladder emptying in anesthetized ferrets; type: in vivo, male ferrets
Method: as §6
Following a 30 minute stabilization period, cholecystokinin 8-sulfated (CCK8-S) was given at doses of 100, 300 and 700 ng/kg intravenously (iv), with a 10 minute stabilization period in between CCK8-S doses. The test compound was administered (iv) after another 30 minute stabilization period, and the CCK8-S dose-response curve was repeated five minutes later.
Test compound vehicle was 3 drops of DMSO (99.9%), 0.5 ml 0.1N NaOH, saline.

[5] = target: T2, peripheral type CCK receptors in rat pancreas (Rattus norvegicus, UniProt P30551); assay: Binding to peripheral type CCK receptors in rat pancreas (3H-L-364,718); details: at 10 μM; read-out: Pancreas Percent Inhibition
T2 construct: Pancreas was obtained from male Sprague-Dawley rats; from tissue; host or cells: pancreas membranes of male Sprague-Dawley rats
T2 sequence (P30551 1-444): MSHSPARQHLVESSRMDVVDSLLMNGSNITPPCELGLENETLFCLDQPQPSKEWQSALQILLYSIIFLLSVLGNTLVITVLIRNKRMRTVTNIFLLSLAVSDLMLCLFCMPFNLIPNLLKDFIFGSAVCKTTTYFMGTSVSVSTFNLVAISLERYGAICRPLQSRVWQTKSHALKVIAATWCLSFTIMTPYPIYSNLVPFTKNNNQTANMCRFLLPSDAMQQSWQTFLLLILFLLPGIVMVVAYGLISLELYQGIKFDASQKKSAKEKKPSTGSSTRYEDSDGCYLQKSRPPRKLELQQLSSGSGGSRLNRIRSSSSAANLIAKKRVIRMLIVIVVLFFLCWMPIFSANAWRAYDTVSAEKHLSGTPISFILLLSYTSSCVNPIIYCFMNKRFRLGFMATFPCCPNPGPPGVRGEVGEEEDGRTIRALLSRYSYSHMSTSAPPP
Procedure, shortened: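 Washed pancreatic membranes from male Sprague-Dawley rats (150-200 g) incubated 1 h at room temperature with 0.4-0.6 nM ³H-L-364,718 in 50 mM Tris pH 7.4, 5 mM MgCl2, bacitracin, 5 mM DTT. Bound radioactivity counted after filtration; nonspecific binding defined with 100 nM L-364,718; IC50 determined.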

[6] = 2:1 dmf:h2o

CN1CCC[C@H]1c1cccnc1 [nicotine, reference compound]
auditory startle response after cessation of chronic nicotine ([1]; 6 mg kg base/day, minipump, twelve days, withdrawal): significantly increased auditory startle responses

O=C1NN(C(=O)Nc2ccc(Br)cc2)[C@@H](c2ccccc2)[C@@H]1c1ccccc1 (single isomer, unassigned) [Example 141, (+)-trans-1-[(4-Bromophenyl)aminocarbonyl]-4,5-diphenyl-3pyrazolidinone]
Catalepsy Score (Catalepsy bar test; 10 mg/kg, 60 Min): 3.8 ± 0.9 s
Catalepsy Score (Catalepsy bar test; 10 mg/kg, 120 Min): 3.3 ± 1.2 s
Catalepsy Score (Catalepsy bar test; 10 mg/kg, 180 Min): 4.6 ± 2.1 s
Catalepsy Score (Catalepsy bar test; 10 mg/kg, Pre): 1.1 ± 0.2 s
Catalepsy Score (Catalepsy bar test; 30 mg/kg, 60 Min): 2.6 ± 1.1 s
Catalepsy Score (Catalepsy bar test; 30 mg/kg, 120 Min): 2.0 ± 0.6 s
Catalepsy Score (Catalepsy bar test; 30 mg/kg, 180 Min): 4.9 ± 1.9 s
Catalepsy Score (Catalepsy bar test; 30 mg/kg, Pre): 1.5 ± 0.3 s
IC50 (brain CCK receptor; mouse brain membranes, read-out: Brain IC50): 16 nM
benzodiazepine withdrawal-induced increase in sensory responsiveness ([2]; 60 mg/kg): significantly reduced the benzodiazepine withdrawal-induced increase in sensory responsiveness on all days examined
benzodiazepine withdrawal-induced increase in sensory responsiveness ([2]; 100 mg/kg): significantly reduced the benzodiazepine withdrawal-induced increase in sensory responsiveness on all days examined
nicotine withdrawal-induced increase in startle response ([1]; 10 mg/kg, days 1-4): significantly reduced the nicotine withdrawal-induced increase in startle response on all days except day 4
nicotine withdrawal-induced increase in sensory responsiveness ([1]; 30 mg/kg, days 1-4): significantly reduced the nicotine withdrawal-induced increase in sensory responsiveness on all days examined
nicotine withdrawal-induced increase in sensory responsiveness ([1]; 60 mg/kg, days 1-4): significantly reduced the nicotine withdrawal-induced increase in sensory responsiveness on all days examined

CN1C(=O)CN=C(c2ccccc2)c2cc(Cl)ccc21 [diazepam, reference compound]
auditory startle response after cessation of chronic diazepam ([2]; 20 mg/kg/day, minipump, twelve days, withdrawal): significantly increased auditory startle responses

O=C1NN(C(=O)Nc2ccccc2)[C@@H](c2ccccc2)[C@@H]1c1ccccc1 (racemic) [Example 15, (±)-trans-1-phenylaminocarbonyl-4,5-diphenyl-3-pyrazolidinone]
inhibition of CCK-induced colonic motility ([3]; 1 mg/kg iv, CCK 300 ng/kg): 57%
inhibition of colonic motility ([3]; CCK-8 100 ng/kg): ~75%
gall bladder emptying ([4]; 1 mg/kg iv, CCK 300 ng/kg): not measurably altered
alteration of CCK-induced gall bladder emptying ([4]; CCK-8 100 ng/kg): about 10%
effect on CCK-induced gall bladder emptying ([4]; in words): without affecting CCK-induced gall bladder emptying
inhibition at 10 µM [5]: 10%
inhibition at 10 µM (brain CCK receptor; at 10 μM, read-out: Brain Percent Inhibition): 69%

1-[(4-Bromophenyl)aminocarbonyl]-2-carboxymethyl-4,5-diphenyl-3-pyrazolidinone and 1-[(4-bromophenyl)aminocarbonyl]-3-carboxymethoxy-4,5-diphenyl-2-pyrazoline [Example 12]
titration pKa [6]: 4.8
